Results as given in paper PMC8839615 (Molecules, 2022).
Counter-ions that a name gives are not always drawn.

Columns and labels:
[1] = Pharmacokinetics study in rats after oral administration (plasma, LC-MS/MS); assay type: in vivo, Wistar rats; conditions: for CLZ / Cmax / VZ / half-life: mean ± SD, n = 6; for half-life: po
Protocol: The liquid chromatographic separation process was operated on an XR LC-20AD Prominence^TM UFLC system (Shimadzu, Japan). At a column temperature at 40 °C, substances were analyzed on an Atlantis T3 (2.1 × 150 mm, 3 μm) column. The mobile phase system was water with 0.1% formic acid (A) and methanol with 0.1% formic acid (B). A flow rate of 0.4 mL/min and sample injection volume of 5 μL were used for gradient elution. The gradient elution program was established as follows: 0.01–0.3 min, 5% B; 0.3–0.8 min, 5–50% B; 0.8–1.5 min, 50–70% B; 1.5–2.8 min, 70–85% B; 2.8–5.0 min, 85% B; 5.0–5.01 min, 85–5% B; and 5.01–7.0 min, 5% B.
Mass spectrometry quantitative analysis was conducted on a Q TRAP 4000 MS/MS system to collect data, and then analyst software (version 1.6, AB Sciex, Framingham, MA, USA) was used to handle data. In the MRM mode and taking nitrogen as the circulating gas, electrospray positive ionization (ESI+) was used to analyze four substances. The detailed MS parameters were established as follows: gas 1, 50 psi; gas 2, 40 psi; air curtain gas, 40 psi; ion spray voltage, 5500 V; ion source temperature, 500 °C. Declustering potential (DP), entrance potential (EP), collision energy (CE), and cell exit potential (CXP) were performed as parameters optimized for substances in the MRM mode.
(§1) The plasma and urine samples were kept at indoor temperature and dissolved before analysis. First, 100 µL of sample was added to a 1.5 mL Eppendorf tube together with 10 µL of ISs solution. Then, 300 µL of methanol:acetonitrile (1:1, v/v) was added, vortexed for 3 min, sonicated for 2 min in an ice-water bath, and centrifuged for 8 min at 16,000 rpm to deposit protein. The supernatant was transferred to a 1.5 mL Eppendorf tube, desiccated under airflow at room temperature, re-dissolved in 50 μL methanol, vortexed for 3 min, sonicated for 5 min in an ice-water bath, and centrifuged for 8 min at 16,000 rpm for LC-MS/MS analysis. For tissue and fecal samples, 100 mg of each sample was precisely weighed and added to a 5 mL Eppendorf tube, then mixed with 1 mL normal saline. The tissue cells were destructed by homogenization to mix with normal saline sufficiently, and the homogenization was achieved after centrifugation for 10 min at 4000 rpm. The methods to precipitate the protein of tissue and feces homogenization were the same as those of the plasma samples.
Eighteen male Wistar rats were separated into three groups with six rats in every group based on different oral medicines, containing a β-CD-DM group (inclusion compounds of DM with β-CD), DM group (single DM), and β-CD group (single β-CD). Each rat was administered to orally, and the dosage of every group was computed by the equal transformation of human and rat surface area of the body by the clinical dosage; therefore, 6 mg/kg of the β-CD-DM group (DM:β-CD(6 mg/kg:393 mg/kg) mixed evenly), 6 mg/kg of the DM group, and 393 mg/kg of the β-CD group were obtained. Blood samples (250 μL) were obtained from the orbital venous plexus at 0, 0.083, 0.25, 0.5, 0.75, 1, 1.5, 2, 4, 6, 8, 12, 24, 36 h after oral delivery. Then, the blood was centrifuged for 10 min at 4000 rpm to obtain the separation of plasma, and the plasma was stored in at −80 ℃ before application. The plasma samples of the rats in each group were treated according to the contents of Section 2.4.1, and then analyzed according to Section 2.2.1. The plasma concentrations of β-CD, DM, ginsenoside Re (IS 1), and psoralen (IS 2) were calculated by the ratio of peak area between analytes and internal standards. The pharmacokinetic parameters of the three groups of analytes were handled by adopting pharmacokinetic software DAS 2.1 found on non-compartment analysis. Then, the obtained main pharmacokinetic parameters of every group were used for independent sample T-test with SPSS v24.0; p < 0.05 was considered as a difference, and p < 0.01 was considered as a significant difference.

[2] = cited from earlier work
[3] = Tissue distribution study of β-CD in rats; assay type: in vivo, Wistar rats
Protocol: as §1, with “The methods to precipitate the protein of tissue and feces homogenization were the same as those of the plasma samples.” left out
Eighteen male Wistar rats were separated into three groups with six rats in every group based on different times after administration, containing group A (30 min after oral administration), group B (1h after oral administration), and group C (4 h after oral administration). […] The tissue homogenization samples of the rats in each group were treated according to the contents of Section 2.4.1, and then analyzed according to Section 2.2.1.

[4] = analyte DM in rat plasma, DM group (single DM), 6 mg/kg oral
[5] = analyte DM in rat plasma, β-CD-DM group (inclusion compounds, DM:β-CD 6 mg/kg:393 mg/kg) oral
[6] = analyte β-CD in rat plasma, β-CD group (single β-CD), 393 mg/kg oral
[7] = analyte β-CD in rat plasma, β-CD-DM group (inclusion compounds, DM:β-CD 6 mg/kg:393 mg/kg) oral

COc1ccc2c(c1)[C@]13CCCC[C@@H]1[C@H](C2)N(C)CC3 [DM, Dextromethorphan hydrobromide, reference compound]
CLZ [1, 4]: 6.55 × 10^1 ± 8.60 L/h/Kg | Cmax [1, 4]: 2.91 × 10^1 ± 3.17 ng/mL/h | VZ [1, 4]: 1640 ± 996 L/kg | CLZ [1, 5]: 44.1 ± 12.5 L/h/kg | Cmax [1, 5]: 3.27 × 10^1 ± 4.67 ng/mL/h | VZ [1, 5]: 1900 ± 643 L/kg | half-life ([1]; male, Wistar, rat, in vivo, 6 mg/kg, analyte DM in rat plasma, DM group (single DM), 6 mg/kg oral): 16.8 h | half-life ([1]; male, Wistar, rat, in vivo, 6 mg/kg, analyte DM in rat plasma, β-CD-DM group (inclusion compounds, DM:β-CD 6 mg/kg:393 mg/kg) oral): 30.4 h | water solubility [2]: poorly water-soluble

OC[C@H]1O[C@@H]2O[C@H]3[C@H](O)[C@@H](O)[C@@H](O[C@H]4[C@H](O)[C@@H](O)[C@@H](O[C@H]5[C@H](O)[C@@H](O)[C@@H](O[C@H]6[C@H](O)[C@@H](O)[C@@H](O[C@H]7[C@H](O)[C@@H](O)[C@@H](O[C@H]8[C@H](O)[C@@H](O)[C@@H](O[C@H]1[C@H](O)[C@H]2O)O[C@@H]8CO)O[C@@H]7CO)O[C@@H]6CO)O[C@@H]5CO)O[C@@H]4CO)O[C@@H]3CO [β-CD, β-cyclodextrin]
time at which concentration in entire tissues reached its peak ([3]; 393 mg/kg single oral, heart, liver, spleen, lung, kidney, sampled 30 min, 1 h, 4 h): 1 h | accumulation in tissues ([3]; 4 h after 393 mg/kg single oral, tissue concentration decreased significantly): without noticeable accumulation | CLZ [1, 6]: 32.7 ± 10.2 L/h/kg | VZ [1, 6]: 400 ± 176 L/kg | CLZ [1, 7]: 3.03 × 10^1 ± 6.18 L/h/Kg | VZ [1, 7]: 354 ± 71.6 L/kg | half-life ([1]; male, Wistar, rat, plasma, 393 mg/kg, analyte β-CD in rat plasma, β-CD group (single β-CD), 393 mg/kg oral): 8.33 ± 2.46 h | half-life ([1]; male, Wistar, rat, plasma, 393 mg/kg, analyte β-CD in rat plasma, β-CD-DM group (inclusion compounds, DM:β-CD 6 mg/kg:393 mg/kg) oral): 8.21 ± 1.47 h | concentration at 30 min ([1]; male, Wistar, rat, plasma, 30 min after oral administration, 393 mg/kg, read-out: concentration of β-CD in rat plasma): ~3500 ng/mL | concentration at 1 h ([1]; male, Wistar, rat, plasma, 1 h after oral administration, 393 mg/kg, tissue concentration similar, read-out: concentration of β-CD in rat plasma): ~3000 ng/mL | AUC0–t as share of AUC0–∞ ([1]; β-CD in rat plasma, oral, sampling to 36 h): more than 96% | time until almost wholly removed from rat plasma ([1]; β-CD, oral administration): ≤ 36 h
